Values after ≈ are worked out from the molar mass of the structure shown.
What was measured:
[1] = Antimicrobial activity against erythromycin-nonsusceptible Streptococcus Group G clinical isolates by broth microdilution method; format: functional; conditions: Streptococcus sp. 'group G'
Enterococcus faecium [2] = assay: Antimicrobial activity against Enterococcus faecium expressing VanB gene clinical isolates by broth microdilution method; format: functional
Enterococcus faecalis [3] = assay: Antimicrobial activity against Enterococcus faecalis expressing VanA gene clinical isolates assessed as percent susceptible isolates by broth microdilution method; format: functional
Streptococcus agalactiae [4] = assay: Antimicrobial activity against erythromycin-susceptible Streptococcus agalactiae clinical isolates assessed as resistant isolates by broth microdilution method; format: functional
Enterococcus faecium [5] = assay: Antimicrobial activity against Enterococcus faecium expressing VanA gene clinical isolates assessed as percent susceptible isolates by broth microdilution method; format: functional
Enterococcus faecalis [6] = assay: Antimicrobial activity against vancomycin-susceptible Enterococcus faecalis clinical isolates assessed as resistant isolates by broth microdilution method; format: functional
Streptococcus pneumoniae [7] = assay: Antimicrobial activity against Streptococcus pneumoniae clinical isolates assessed as percent susceptible isolates by broth microdilution method; format: functional
Streptococcus pyogenes [8] = assay: Antimicrobial activity against erythromycin-nonsusceptible Streptococcus pyogenes clinical isolates assessed as percent susceptible isolates by broth microdilution method; format: functional
[9] = Antimicrobial activity against erythromycin-susceptible Streptococcus Group C clinical isolates assessed as percent susceptible isolates by broth microdilution method; format: functional, Streptococcus sp. 'group C'
Streptococcus [10] = assay: Antimicrobial activity against erythromycin-susceptible Streptococcus Group F clinical isolates by broth microdilution method; format: functional
Streptococcus [11] = assay: Antimicrobial activity against Streptococcus Group F clinical isolates by broth microdilution method; format: functional
Streptococcus pneumoniae [12] = assay: Antimicrobial activity against penicillin-resistant Streptococcus pneumoniae clinical isolates assessed as percent susceptible isolates by broth microdilution method; format: functional
Streptococcus pneumoniae [13] = assay: Antimicrobial activity against Streptococcus pneumoniae clinical isolates by broth microdilution method; format: functional
Streptococcus pneumoniae [14] = assay: Antimicrobial activity against penicillin-resistant Streptococcus pneumoniae clinical isolates by broth microdilution method; format: functional
Streptococcus pneumoniae [15] = assay: Antimicrobial activity against penicillin-susceptible Streptococcus pneumoniae clinical isolates assessed as percent susceptible isolates by broth microdilution method; format: functional
Streptococcus agalactiae [16] = assay: Antimicrobial activity against erythromycin-susceptible Streptococcus agalactiae clinical isolates by broth microdilution method; format: functional
Streptococcus pyogenes [17] = assay: Antimicrobial activity against erythromycin-susceptible Streptococcus pyogenes clinical isolates assessed as percent susceptible isolates by broth microdilution method; format: functional
Enterococcus faecium [18] = assay: Antimicrobial activity against Enterococcus faecium clinical isolates by broth microdilution method; format: functional
[19] = Antimicrobial activity against erythromycin-susceptible Streptococcus Group G clinical isolates by broth microdilution method; format: functional; conditions: Streptococcus sp. 'group G'
Streptococcus pneumoniae [20] = assay: Antimicrobial activity against penicillin-susceptible Streptococcus pneumoniae clinical isolates by broth microdilution method; format: functional
Enterococcus faecium [21] = assay: Antimicrobial activity against Enterococcus faecium clinical isolates assessed as resistant isolates by broth microdilution method; format: functional
Streptococcus agalactiae [22] = assay: Antimicrobial activity against erythromycin-nonsusceptible Streptococcus agalactiae clinical isolates assessed as resistant isolates by broth microdilution method; format: functional
Streptococcus pneumoniae [23] = assay: Antimicrobial activity against penicillin-intermediate Streptococcus pneumoniae clinical isolates assessed as resistant isolates by broth microdilution method; format: functional
Streptococcus agalactiae [24] = assay: Antimicrobial activity against erythromycin-susceptible Streptococcus agalactiae clinical isolates assessed as percent susceptible isolates by broth microdilution method; format: functional
Streptococcus agalactiae [25] = assay: Antimicrobial activity against Streptococcus agalactiae clinical isolates assessed as resistant isolates by broth microdilution method; format: functional
Streptococcus [26] = assay: Antimicrobial activity against erythromycin-nonsusceptible Streptococcus Group F clinical isolates by broth microdilution method; format: functional
[27] = Antimicrobial activity against Streptococcus Group C clinical isolates by broth microdilution method; format: functional; conditions: Streptococcus sp. 'group C'
Streptococcus pyogenes [28] = assay: Antimicrobial activity against erythromycin-nonsusceptible Streptococcus pyogenes clinical isolates by broth microdilution method; format: functional
Streptococcus agalactiae [29] = assay: Antimicrobial activity against erythromycin-nonsusceptible Streptococcus agalactiae clinical isolates assessed as percent susceptible isolates by broth microdilution method; format: functional
[30] = Antimicrobial activity against erythromycin-susceptible Streptococcus Group G clinical isolates assessed as resistant isolates by broth microdilution method; format: functional, Streptococcus sp. 'group G'
[31] = Antimicrobial activity against erythromycin-susceptible Streptococcus Group C clinical isolates by broth microdilution method; format: functional; conditions: Streptococcus sp. 'group C'
Enterococcus faecium [32] = assay: Antimicrobial activity against Enterococcus faecium expressing VanA gene clinical isolates by broth microdilution method; format: functional
[33] = Antimicrobial activity against erythromycin-nonsusceptible Streptococcus Group C clinical isolates by broth microdilution method; format: functional; conditions: Streptococcus sp. 'group C'
Streptococcus pneumoniae [34] = assay: Antimicrobial activity against penicillin-intermediate Streptococcus pneumoniae clinical isolates by broth microdilution method; format: functional
Streptococcus pyogenes [35] = assay: Antimicrobial activity against Streptococcus pyogenes clinical isolates by broth microdilution method; format: functional
Streptococcus agalactiae [36] = assay: Antimicrobial activity against Streptococcus agalactiae clinical isolates by broth microdilution method; format: functional
Streptococcus agalactiae [37] = assay: Antimicrobial activity against Streptococcus agalactiae clinical isolates assessed as percent susceptible isolates by broth microdilution method; format: functional
Streptococcus pyogenes [38] = assay: Antimicrobial activity against erythromycin-susceptible Streptococcus pyogenes clinical isolates by broth microdilution method; format: functional
[39] = Antimicrobial activity against erythromycin-susceptible Streptococcus Group G clinical isolates assessed as percent susceptible isolates by broth microdilution method; format: functional, Streptococcus sp. 'group G'
[40] = Antimicrobial activity against Streptococcus Group G clinical isolates by broth microdilution method; format: functional; conditions: Streptococcus sp. 'group G'
Streptococcus pneumoniae [41] = assay: Antimicrobial activity against penicillin-intermediate Streptococcus pneumoniae clinical isolates assessed as percent susceptible isolates by broth microdilution method; format: functional
Streptococcus pyogenes [42] = assay: Antimicrobial activity against Streptococcus pyogenes clinical isolates assessed as resistant isolates by broth microdilution method; format: functional
Streptococcus pyogenes [43] = assay: Antimicrobial activity against Streptococcus pyogenes clinical isolates assessed as percent susceptible isolates by broth microdilution method; format: functional
[44] = Antimicrobial activity against Streptococcus Group C clinical isolates assessed as resistant isolates by broth microdilution method; format: functional, Streptococcus sp. 'group C'
Streptococcus pyogenes [45] = assay: Antimicrobial activity against erythromycin-susceptible Streptococcus pyogenes clinical isolates assessed as resistant isolates by broth microdilution method; format: functional
Streptococcus agalactiae [46] = assay: Antimicrobial activity against erythromycin-nonsusceptible Streptococcus agalactiae clinical isolates by broth microdilution method; format: functional
Enterococcus faecalis [47] = assay: Antimicrobial activity against Enterococcus faecalis expressing VanB gene clinical isolates by broth microdilution method; format: functional
Enterococcus faecalis [48] = assay: Antimicrobial activity against vancomycin-susceptible Enterococcus faecalis clinical isolates by broth microdilution method; format: functional
[49] = system: Staphylococcus haemolyticus; assay: Antimicrobial activity against oxacillin-resistant Staphylococcus haemolyticus clinical isolates by broth microdilution method; format: functional
Staphylococcus aureus [50] = assay: Antimicrobial activity against Staphylococcus aureus clinical isolates assessed as resistant isolates by broth microdilution method; format: functional
[51] = system: Staphylococcus epidermidis; assay: Antimicrobial activity against oxacillin-susceptible Staphylococcus epidermidis clinical isolates assessed as resistant isolates by broth microdilution method; format: functional
[52] = Antimicrobial activity against erythromycin-nonsusceptible Streptococcus Group C clinical isolates assessed as percent susceptible isolates by broth microdilution method; format: functional, Streptococcus sp. 'group C'
[53] = system: Staphylococcus haemolyticus; assay: Antimicrobial activity against Staphylococcus haemolyticus clinical isolates assessed as percent susceptible isolates by broth microdilution method; format: functional
Staphylococcus aureus [54] = assay: Antimicrobial activity against Staphylococcus aureus clinical isolates by broth microdilution method; format: functional
Staphylococcus aureus [55] = assay: Antimicrobial activity against oxacillin-susceptible Staphylococcus aureus clinical isolates assessed as resistant isolates by broth microdilution method; format: functional
[56] = system: Staphylococcus haemolyticus; assay: Antimicrobial activity against oxacillin-resistant Staphylococcus haemolyticus clinical isolates assessed as resistant isolates by broth microdilution method; format: functional
[57] = system: Staphylococcus epidermidis; assay: Antimicrobial activity against oxacillin-resistant Staphylococcus epidermidis clinical isolates assessed as resistant isolates by broth microdilution method; format: functional
[58] = system: Staphylococcus epidermidis; assay: Antimicrobial activity against oxacillin-susceptible Staphylococcus epidermidis clinical isolates by broth microdilution method; format: functional

## C[C@H]1COc2c(N3CCN(C)CC3)c(F)cc3c(=O)c(C(=O)O)cn1c23.C[C@H]1COc2c(N3CCN(C)CC3)c(F)cc3c(=O)c(C(=O)O)cn1c23.O [LEVOFLOXACIN]
[1]
  MIC90: 0.5 µg/mL
Enterococcus faecium [2]
  MIC90: > 16 µg/mL
Enterococcus faecalis [3]
  Activity: 0%
Streptococcus agalactiae [4]
  Activity: 1.4%
Enterococcus faecium [5]
  Activity: 0.2%
Enterococcus faecalis [6]
  Activity: 35.2%
Streptococcus pneumoniae [7]
  Activity: 99.1%
Streptococcus pyogenes [8]
  Activity: 99.2%
[9]
  Activity: 100%
Streptococcus [10]
  MIC90: 0.5 µg/mL
Streptococcus [11]
  MIC90: 0.5 µg/mL
Streptococcus pneumoniae [12]
  Activity: 99.3%
Streptococcus pneumoniae [13]
  MIC90: 1 µg/mL
Streptococcus pneumoniae [14]
  MIC90: 1 µg/mL
Streptococcus pneumoniae [15]
  Activity: 99.5%
Streptococcus agalactiae [16]
  MIC90: 1 µg/mL
Streptococcus pyogenes [17]
  Activity: 100%
Enterococcus faecium [18]
  MIC90: > 16 µg/mL
[19]
  MIC90: 0.5 µg/mL
Streptococcus pneumoniae [20]
  MIC90: 1 µg/mL
Enterococcus faecium [21]
  Activity: 85.3%
Streptococcus agalactiae [22]
  Activity: 4.1%
Streptococcus pneumoniae [23]
  Percent of isolates resistant: 2.3%
Streptococcus agalactiae [24]
  Activity: 98.6%
Streptococcus agalactiae [25]
  Activity: 2.2%
Streptococcus [26]
  MIC90: 0.5 µg/mL
[27]
  MIC90: 0.5 µg/mL
Streptococcus pyogenes [28]
  MIC90: 1 µg/mL
Streptococcus agalactiae [29]
  Activity: 95.9%
[30]
  Activity: 0%
[31]
  MIC90: 0.5 µg/mL
Enterococcus faecium [32]
  MIC90: > 16 µg/mL
[33]
  MIC90: 0.5 µg/mL
Streptococcus pneumoniae [34]
  MIC90: 1 µg/mL
Streptococcus pyogenes [35]
  MIC90: 0.5 µg/mL
Streptococcus agalactiae [36]
  MIC90: 1 µg/mL
Streptococcus agalactiae [37]
  Activity: 97.8%
Streptococcus pyogenes [38]
  MIC90: 0.5 µg/mL
[39]
  Activity: 100%
[40]
  MIC90: 0.5 µg/mL
Streptococcus pneumoniae [41]
  Activity: 97.7%
Streptococcus pyogenes [42]
  Activity: 0.1%
Streptococcus pyogenes [43]
  Activity: 99.9%
[44]
  Activity: 0%
Streptococcus pyogenes [45]
  Activity: 0%
Streptococcus agalactiae [46]
  MIC90: 1 µg/mL
Enterococcus faecalis [47]
  MIC90: > 16 µg/mL
Enterococcus faecalis [48]
  MIC90: > 16 µg/mL

## CN[C@H](CC(C)C)C(=O)N[C@H]1C(=O)N[C@@H](CC(N)=O)C(=O)N[C@H]2C(=O)N[C@H]3C(=O)N[C@H](C(=O)N[C@H](C(=O)O)c4cc(O)cc(O)c4-c4cc3ccc4O)[C@H](O)c3ccc(c(Cl)c3)Oc3cc2cc(c3O[C@@H]2O[C@H](CO)[C@@H](O)[C@H](O)[C@H]2O[C@H]2C[C@](C)(N)[C@H](O)[C@H](C)O2)Oc2ccc(cc2Cl)[C@H]1O [VANCOMYCIN]
[49]
  MIC90: 2 µg/mL (≈ 1.38 µM)
Staphylococcus aureus [50]
  Percent resistant isolates: 0%
[1]
  MIC90: 0.5 µg/mL (≈ 0.345 µM)
Enterococcus faecium [2]
  MIC90: 256 µg/mL (≈ 177 µM)
Enterococcus faecalis [3]
  Activity: 0%
Streptococcus agalactiae [4]
  Activity: 0%
Enterococcus faecium [5]
  Activity: 0%
[51]
  Percent of isolates resistant: 0%
Enterococcus faecalis [6]
  Activity: 0%
Streptococcus pneumoniae [7]
  Activity: 100%
Streptococcus pyogenes [8]
  Activity: 100%
[9]
  Activity: 100%
Streptococcus [10]
  MIC90: 0.5 µg/mL (≈ 0.345 µM)
Streptococcus [11]
  MIC90: 0.5 µg/mL (≈ 0.345 µM)
Streptococcus pneumoniae [12]
  Activity: 100%
Streptococcus pneumoniae [13]
  MIC90: 0.25 µg/mL (≈ 0.173 µM)
Streptococcus pneumoniae [14]
  MIC90: 0.5 µg/mL (≈ 0.345 µM)
Streptococcus pneumoniae [15]
  Activity: 100%
Streptococcus agalactiae [16]
  MIC90: 0.5 µg/mL (≈ 0.345 µM)
Streptococcus pyogenes [17]
  Activity: 100%
Enterococcus faecium [18]
  MIC90: > 256 µg/mL
[19]
  MIC90: 0.5 µg/mL (≈ 0.345 µM)
Streptococcus pneumoniae [20]
  MIC90: 0.25 µg/mL (≈ 0.173 µM)
Enterococcus faecium [21]
  Activity: 56.3%
Streptococcus agalactiae [22]
  Activity: 0%
[52]
  Activity: 100%
Streptococcus agalactiae [24]
  Activity: 100%
[53]
  Activity: 100%
Streptococcus agalactiae [25]
  Activity: 0%
Streptococcus [26]
  MIC90: 0.5 µg/mL (≈ 0.345 µM)
[27]
  MIC90: 0.5 µg/mL (≈ 0.345 µM)
Streptococcus pyogenes [28]
  MIC90: 0.25 µg/mL (≈ 0.173 µM)
Streptococcus agalactiae [29]
  Activity: 100%
[31]
  MIC90: 0.5 µg/mL (≈ 0.345 µM)
Enterococcus faecium [32]
  MIC90: > 256 µg/mL
[33]
  MIC90: 0.5 µg/mL (≈ 0.345 µM)
Streptococcus pneumoniae [34]
  MIC90: 0.25 µg/mL (≈ 0.173 µM)
Streptococcus pyogenes [35]
  MIC90: 0.25 µg/mL (≈ 0.173 µM)
Streptococcus agalactiae [36]
  MIC90: 0.5 µg/mL (≈ 0.345 µM)
Staphylococcus aureus [54]
  MIC90: 1 µg/mL (≈ 0.69 µM)
Streptococcus agalactiae [37]
  Activity: 100%
Streptococcus pyogenes [38]
  MIC90: 0.25 µg/mL (≈ 0.173 µM)
[39]
  Activity: 100%
[40]
  MIC90: 0.5 µg/mL (≈ 0.345 µM)
Streptococcus pneumoniae [41]
  Activity: 100%
Streptococcus pyogenes [43]
  Activity: 100%
Staphylococcus aureus [55]
  Percent of isolates resistant: 0%
[56]
  Activity: 0%
Streptococcus agalactiae [46]
  MIC90: 0.5 µg/mL (≈ 0.345 µM)
[57]
  Percent of isolates resistant: 0%
Enterococcus faecalis [47]
  MIC90: > 256 µg/mL
Enterococcus faecalis [48]
  MIC90: 2 µg/mL (≈ 1.38 µM)
[58]
  MIC90: 2 µg/mL (≈ 1.38 µM)

— ChEMBL document CHEMBL1649268, “Comparative in vitro activity profile of oritavancin against recent gram-positive clinical isolates” (2009)
